{"source": "paper PMC8899516", "about": "“Structure-Activity Relationship Studies of 4-((4-(2-fluorophenyl)piperazin-1-yl)methyl)-6-imino-N-(naphthalen-2-yl)-1,3,5-triazin-2-amine (FPMINT) Analogues as Inhibitors of Human Equilibrative Nucleoside Transporters” (Frontiers in Pharmacology, 2022)", "key": {"ENT2 [1]": {"target": "T1, ENT2 (Homo sapiens, UniProt Q14542)", "T1 construct": "expressed in transfected cells", "T1 sequence (Q14542 1-456)": "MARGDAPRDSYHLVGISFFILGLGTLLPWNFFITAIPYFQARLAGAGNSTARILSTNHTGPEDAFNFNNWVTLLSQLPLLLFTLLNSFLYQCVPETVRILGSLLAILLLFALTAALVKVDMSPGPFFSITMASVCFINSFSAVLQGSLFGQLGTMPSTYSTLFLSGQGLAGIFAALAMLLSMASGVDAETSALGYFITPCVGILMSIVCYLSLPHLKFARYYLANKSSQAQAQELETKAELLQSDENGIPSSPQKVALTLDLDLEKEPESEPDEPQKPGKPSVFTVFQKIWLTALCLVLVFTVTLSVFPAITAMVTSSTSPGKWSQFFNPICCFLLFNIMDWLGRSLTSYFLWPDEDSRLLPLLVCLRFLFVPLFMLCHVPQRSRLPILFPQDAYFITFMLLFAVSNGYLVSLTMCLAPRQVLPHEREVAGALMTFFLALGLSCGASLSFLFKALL", "assay": "Wash-out reversibility of [3H]uridine uptake inhibition in PK15NTD/ENT2 cells", "assay_type": "cell-based", "settings": "50 µM, incubation 1–60 min, washed five times", "procedure": "To determine whether the inhibitory effects of compound 3c were reversible or irreversible, PK15NTD/ENT1 and PK15NTD/ENT2 cells were incubated with 50 µM of compound 3c for different time periods (1–60 min). The cells were then washed five times with buffer. After wash-out for every single time [^3H]uridine uptake was measured. […] The longer the incubation time with compound 3c, the more difficult it was to wash-out the inhibitory effects of compound 3c.\nFIGURE 6 Reversibility of the inhibitory effects of compound 3c on ENT1 and ENT2 (A) PK15NTD/ENT1 and (B) PK15NTD/ENT2 cells were incubated with 50 μM of compound 3c or a vehicle (0.5% DMSO, as a control) for different time (0–60 min) The cells were then washed five times. After wash-out for every single time [^3H]uridine uptake (1 μM, 2 μCi/ml) was measured. Data are presented as mean ± SE of three experiments. ^* p < 0.05 compared with the fifth wash."}, "ENT2 [2]": {"target": "T1, ENT2", "assay": "Kinetic study of [3H]uridine uptake in PK15NTD/ENT2 cells", "assay_type": "cell-based", "procedure": "Nucleoside transporter-deficient porcine kidney fibroblast cells (PK15NTD) stably transfected with cloned human ENT1 or ENT2 ([Ward et al., 2000]) were used as the in vitro models. The cells were cultured in Dulbecco’s Modified Eagle’s Medium (DMEM) supplemented with 10% (v/v) foetal bovine serum, 0.5 mg/ml geneticin, 100 units/ml penicillin, 100 μg/ml streptomycin and 0.25 μg/ml of amphotericin B at 37°C in 5% CO2/95% air.\nConfluent monolayers of PK15NTD/ENT1 and PK15NTD/ENT2 cells in 24-well plates were washed thrice with HEPES-buffered Ringer’s solution containing (mM): 135 NaCl, 10 glucose, 5 KCl, 5 HEPES, 3.33 NaH2PO4, 1.0 CaCl2, 1.0 MgCl2, 0.83 Na2HPO4; pH 7.4. The cells were incubated with different concentrations of FPMINT analogues (from 10 nM to 100 μM) containing [^3H]uridine (2 μCi/ml, 1 μM) for 1 min. Passive uridine uptake was determined by incubating the cells in HEPES-buffered Ringer’s solution containing [^3H]uridine in the presence of 0.5 mM NBMPR. The cells were rapidly washed five times with ice-cold phosphate-buffered saline (PBS). After air-drying, the cells were solubilised by overnight incubation in 500 μl of 5% Triton-X100. Next, 300 μl of the cell lysates were mixed with 2 ml of scintillation liquid. The radioactivity of each sample was quantified by a scintillation counter. The protein content in each well was determined spectrophotometrically using a commercial bicinchoninic acid assay (Pierce Biochemicals, Rockford, IL). Uptake values were expressed as picomoles of [^3H]uridine per milligram of cellular protein per minute.\nAll data were analysed by GraphPad Prism software (San Diego, CA, United States). Data are expressed as mean ± standard error (SE) of three experiments performed in triplicate. The IC50 values were determined from the dose-response curves fitted with a logistic function. For the kinetic study of [^3H]uridine uptake, apparent K m and V max values were determined from the Michaelis-Menten equation, and K i was determined from the X-intercept of linear regression. Analysis of variance and Student’s t-test were performed for multiple and paired variables, respectively. p values of <0.05 were considered to be statistically significant.\nCompound 3c was selected for further investigation. The kinetic study of [^3H]uridine transport was performed by measuring the concentration-dependent uptake of [^3H]uridine. This study could provide clue about the mode of action of compound 3c. The uptake of [^3H]uridine by ENT1 and ENT2 was saturable and conformed to Michaelis-Menten kinetics. Compound 3c decreased the V max of ENT1 but had no effect on K m . […] The slopes of the linear 1/V versus 1/[S] plots increased with the concentration of compound 3c (Figure 4B).\nFIGURE 4 Competitive inhibition of ENT1 and ENT2 by compound 3c. Kinetic study of [^3H]uridine uptake (0.1 μM–1 mM) was measured in (A) PK15NTD/ENT1 and (D) PK15NTD/ENT2 cells in the presence of various concentrations of compound 3c (0, 0.01, 0.1, 1 and 10 µM) (B,E) 1/V versus 1/[S] plots of each curve in (A) and (D), respectively (C,F) The plot of slopes of each line in (B) and (E), respectively, versus the concentration of compound 3c. Data are presented as mean ± SE of three experiments."}}}
{"smiles": "Cc1cccc(Nc2nc(N)nc(CN3CCN(c4ccc(F)cc4)CC3)n2)c1", "note": "[Compound 3c]", "values": [{"measurement": "reversibility of inhibitory effect on ENT2 by washing", "setting": "ENT2 [1]", "value": "only partially reversed by washing"}, {"measurement": "apparent Vmax of ENT2", "setting": "ENT2 [2]; 0.01 µM compound 3c", "value": "1775 ± 76.83", "unit": "pmol/mg protein/min"}, {"measurement": "apparent Vmax of ENT2", "setting": "ENT2 [2]; 0.1 µM compound 3c", "value": "1295 ± 78.09", "unit": "pmol/mg protein/min"}, {"measurement": "apparent Vmax of ENT2", "setting": "ENT2 [2]; 1 µM compound 3c", "value": "918.6 ± 47.48", "unit": "pmol/mg protein/min"}, {"measurement": "apparent Vmax of ENT2", "setting": "ENT2 [2]; 10 µM compound 3c", "value": "534.6 ± 28.21", "unit": "pmol/mg protein/min"}, {"measurement": "mode of inhibition of ENT2-mediated uridine transport", "setting": "ENT2 [2]; decreased Vmax, apparent Km unchanged", "value": "non-competitive inhibitor"}, {"measurement": "Ki", "setting": "ENT2 [2]; x-intercept of slopes versus concentration plot", "value": 0.54, "unit": "µM"}]}
